Calls of active or inactive are those of the source.
What was measured:
[1] = HepG2 cell cytotoxicity, dose response, cytotoxicity control, cherry-picked samples (AID 1159577); format: functional, cell-based
HEK293 = assay: HEK293T cell cytotoxicity, dose response, cytotoxicity control, ATP luminescence, cherry-pick samples (AID 687005); format: functional, cell-based; conditions: Homo sapiens;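 also: cells exposed to compound for 48 hours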
[2] = HEK293 Cytotoxicity Assay Measured in Cell-Based System Using Plate Reader - 7071-01_Inhibitor_Dose_CherryPick_Activity_Set2.; format: functional
[3] = P. falciparum Dd2 growth inhibitors, dose response, SYBR Green, cherry-picked samples (AID 1159567); format: functional, cell-based
[4] = HIV Env cell-cell fusion inhibitors, dose response, HIV entry, plate reader, dry powder (AID 687023); format: functional, cell-based
[5] = CEM21 cell cytotoxicity, dose response, cytotoxicity control, plate reader, dry powder (AID 687026); format: functional, cell-based
[6] = inhibitors of clade B AD8 Env fusion, dose response, cell-based, cherry-pick (AID 652062); format: functional;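 also: luciferase signal from cell-cell fusion driven by HIV-1 clade B AD8 Env; potency is for inhibitors of fusion seen as a drop in luminescence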
[7] = ZM109 Env clade C HIV-1 fusion inhibitors, dose response, HeLa effector, CEM target cells, luciferase, cherry-pick (AID 652058); format: functional, cell-based
[8] = inhibitors of HIV Env-driven cell fusion, dose response, cherry-pick (AID 652057); format: functional, cell-based
[9] = inhibitors of PGC1a acetylation in cells, dose response, cell-based, cherry-picked samples (AID 720514); format: functional;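 also: potency may reflect raised or lowered acetylation signal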
[10] = Late stage assay provider results from the probe development effort to identify inhibitors of the Plasmodium falciparum M18 Aspartyl Aminopeptidase (M18AAP): radiolabel-based cell-based dose response assay to identify compounds that inhibit P. falciparum growth in RBCs, Set 2..; format: functional
[11] = P. falciparum Dd2 growth inhibitors, dose response, SYBR Green, dry powder samples, set 4 (AID 1159572); format: functional, cell-based
[12] = P. falciparum Dd2 growth inhibitors, dose response, SYBR Green, dry powder samples, set 9 (AID 1159568); format: functional, cell-based
[13] = molecular target: RNA-editing ligase 1, mitochondrial (Trypanosoma brucei brucei, UniProt P86926); assay: TbREL1 ligase inhibitors, dose response, biochemical, fluorescence, Trypanosoma brucei (AID 1117295); format: functional
[14] = Concentration-dependent survival of SW480 colon cancer line, luminescence detection with CellTiter-Glo, half-maximal inhibitory concentration (AID 1117338); format: functional
[15] = RKO cell viability reduction, dose response, CellTiter-Glo luminescence (AID 1117322); format: functional
[16] = cytotoxicity toward Colo320 cells – cell-based, CellTiter-Glo luminescence, IC50, dose response (AID 1117334); format: functional; conditions: COLO 320
[17] = HeLa 2N DNA content increase, dose response, cell-based, IC50 (AID 1117349); format: functional
[18] = HeLa 4N DNA content increase, dose response, cell-based, IC50 (AID 1117351); format: functional
[19] = cytotoxicity toward HT-29 cells – cell-based, CellTiter-Glo luminescence, IC50, dose response (AID 1117330); format: functional
[20] = CellTiter-Glo luminescent dose response of DLD-1 viability loss (AID 1117352); format: functional
[21] = SNU-C1 cell viability reduction, dose response, CellTiter-Glo luminescence (AID 1117323); format: functional, cell-based
[22] = cytotoxicity toward HCT116 cells – cell-based, CellTiter-Glo luminescence, IC50, dose response (AID 1117332); format: functional; conditions: HCT-116
[23] = HCT116 cell viability decrease, GSK3B pretreatment – CellTiter-Glo, IC50, dose response (AID 1117339); format: functional; conditions: HCT-116

Sequence of RNA-editing ligase 1, mitochondrial (P86926 whole entry): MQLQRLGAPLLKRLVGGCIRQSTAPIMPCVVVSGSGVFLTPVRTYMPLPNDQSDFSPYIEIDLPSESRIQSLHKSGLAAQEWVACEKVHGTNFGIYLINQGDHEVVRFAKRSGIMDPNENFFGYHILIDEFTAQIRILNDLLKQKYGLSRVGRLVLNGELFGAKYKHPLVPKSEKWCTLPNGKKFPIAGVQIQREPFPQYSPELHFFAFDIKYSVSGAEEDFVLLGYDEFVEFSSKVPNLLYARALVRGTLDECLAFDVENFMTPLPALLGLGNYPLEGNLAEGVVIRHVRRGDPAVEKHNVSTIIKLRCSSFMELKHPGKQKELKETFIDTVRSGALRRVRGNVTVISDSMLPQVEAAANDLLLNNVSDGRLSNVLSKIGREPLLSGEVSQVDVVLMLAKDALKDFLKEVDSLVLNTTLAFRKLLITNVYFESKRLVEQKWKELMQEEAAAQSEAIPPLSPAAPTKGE

With `C[C@H](CO)N1C[C@H](C)[C@H](CN(C)S(=O)(=O)c2ccc(F)cc2)Oc2ccc(NS(=O)(=O)c3ccc(Cl)cc3)cc2C1=O` the AC50 [1] was > 39 µM (inactive), the AC50 (HEK293) was 18.9 µM (active) and the AC50 [2] was 18.9 µM (active). The AC50 [3] was 10 µM (active).
For `CCCNC(=O)N1[C@H](C#N)[C@H](c2ccc(-c3cccnc3)cc2)[C@@H]1CO`, the AC50 [4] was 1.61 µM (active), the AC50 [5] was > 70 µM (inactive) and the AC50 [6] was 4.97 µM (active). The AC50 [7] was 10.2 µM (active) and the AC50 [8] was 0.93 µM (active).
In the case of `OC[C@@H]1[C@H](c2ccc(/C=C/c3ccccc3)cc2)[C@H]2CN(CCC(F)(F)F)CCCCN12`, the AC50 [9] is reported as 17.4 µM (active).
In the case of `Oc1ccc(C2CCN(c3ccnc4ccccc34)C2)cc1O` (centres undefined), the IC50 [10] is reported as 0.93 µM (active).
For `COc1ccc2c3c(n(C)c2c1)[C@H](CO)N(C(C)=O)CC31CCN(C(=O)Nc2ccccc2F)CC1`, the AC50 [11] was 6.63 µM (active).
In the case of `C[C@H](CO)N1C[C@H](C)[C@@H](CN(C)C(=O)Nc2ccc(C(F)(F)F)cc2)Oc2c(NC(=O)c3ccc(-c4nccs4)cc3)cccc2C1=O`, the AC50 [12] is reported as 6.41 µM (active).
For `COC(=O)C1=C(C)N(Cc2ccccc2C(F)(F)F)C(NCc2ccc(OC)cc2)=NC1c1cccc(F)c1` (centres undefined), the IC50 [13] was > 96.6 µM (inactive).
In the case of `O=C(NOCC1CC1)c1ccc(F)c(F)c1Nc1ccc(I)cc1Cl` [CI-1040], the IC50 [14] is reported as 0.00495 µM (active), the IC50 [15] is reported as 0.00319 µM (active) and the IC50 [16] is reported as 0.848 µM (active). The IC50 [17] was > 10 µM (inactive), the IC50 [18] was > 10 µM (inactive) and the IC50 [19] was 0.0263 µM (active). For the same molecule, the IC50 [20] was 2.16 µM (active), the IC50 [21] was 0.0171 µM (active) and the IC50 [22] was 0.00179 µM (active). For the same molecule, the IC50 [23] was 0.969 µM (active).
